How the values were obtained:
[1] = system: R3230AC rat mammary adenocarcinoma; assay: Tumour imaging using hyperpolarised 13C-pyruvate as imaging agent (13C-MR imaging of tumour-bearing rats); format: in vivo
Procedure: R3230AC is a rat mammary adenocarcinoma that can be maintained in female Fischer 344 rats. To establish the animal tumour model, a frozen vial of R32030 cells containing RPMI 1640, 10% FBS and 10% DMSO was rapidly thawed in 37° C. Thereafter, the cell solution was transferred to FBS and increasing volumes of RPMI 1640 were added. Finally, the cell suspension was transferred to a 25 cm^2growth flask and put into an incubator at 37° C., 5% CO2. Growth media were changed every other day. At the day of rat infection, removal of cells was carried out either by mechanical force or by means of trypsin. Cells were washed using phosphate buffer lacking calcium and magnesium. Trypsin (0.05% trypsin in 0.02% EDTA) was added for 2-5 min. Then, 5 ml FBS was added and the cells were transferred into a beaker containing RPMI 1640 with FCS and antibiotics (100 IU/ml penicillin, 100 IU/ml streptomycin and 2.5 µg/ml amphotericin […]). The cell solution was centrifugated and the cell pellet was resuspended in 20 ml RPMI with FBS and antibiotics, centrifugation and resuspension was repeated. The cells were then aliquoted to vials containing 4×10^6 cells/ml RPMI 1640. To obtain donor tumours, female Fischer 344 rats (Charles River, 180-200 g) were anaesthetised and 0.3 ml of the cell suspension was subcutaneously injected in the inguinal region on both sides. 15 and 22 days later, pieces of tumour were prepared as described in F. A. Burgener et al., Invest Radiol 2216 (1987), 472-478; S. Saini et al., J. Magn. Reson, 129/1 (1997), 35-43). Two incisions were made on the ventral abdomen of recipient female Fischer rats. A tumour piece was inserted into each pocket and the incisions were closed. Rats were brought to imaging 12-14 days after tumour engrafting.
Weighed rats were anaesthetised using isoflurane (2-3%) and kept on a heated table to ensure a body temperature of about 37° C. A catheter was introduced into the tail vein and into the arteria carotis communis sinistra. The rats were transported to the MR machine and placed on a home-built pad that was heated to approx. 37° C. by means of circulating FC-104 Fluorinert. This liquid will not give rise to background signals in ^1H- and ^13C-MR imaging. Anaesthesia was continued by means of 1-2% isoflurane delivered via a long tube to an open-breathing system at a rate of 0.4 L/min. The arterial catheter was connected via a T-tube to a pressure recorder and a pump delivering saline (rate […]) to prevent catheter clotting. Rats were positioned in a rat MR coil (Rapid Biomedical, Germany) and imaging using a standard proton MR imaging sequence to get anatomical information and to determine the location of the tumour.
Based on the proton frequency found by the MR system the MR frequency for ^13C1-alanine was calculated according to the following equation: Frequency ^13C1-alanine=0.25144×[(system frequency proton×1.00021)−0.000397708]
The frequency calculated positioned the MR signal arising from ^13C1-alanine on resonance with ^13C1-lactate on the left and ^13C1-pyruvate resonating on the right of ^13C1-alanine. An unlocalised MR spectroscopy sequence was run to ensure that the ^13C-MR coil and the system MR frequency had been set up correctly. The ^13C-image location was positioned to cover the tumour (slice thickness 10 mm, in plane pixel size 5×5 mm^2). In the reconstruction phase, the image data was zero-filled to result in 2.5×2.5×10 mm^3 resolution. ^13C1-pyruvate in TRIS buffer (90 mM) was injected in a dose of 10 ml/kg during a period of 12 s with a minimum volume of 2 ml into the tail vein and 30 s after the start of the injection (i.e. 18 s after finishing the injection), the chemical shift ^13C-MR sequence was started. 5.4 Analysis of the MR Imaging Data
In the reconstruction phase, the matrix was zero-filled to 32×32, a mathematical operation that helps to improve the spatial resolution. […]

[2] = DNP polarisation of 13C1-pyruvic acid, solid-state 13C-NMR DNP enhancement; format: physicochemical; conditions: 20 mM Tris(8-carboxy-2,2,6,6-tetra(hydroxyethoxy)methyl-benzo[1,2-d:4,5-d']bis(1,3)dithiole-4-yl)methyl sodium salt; 1.2 K, 3.35 T, 93.950 GHz; from thermal equilibrium and enhanced NMR signal
Procedure: A 20 mM solution was prepared by dissolving Tris(8-carboxy-2,2,6,6-tetra(hydroxyethoxy)methyl-benzo[1,2-d:4,5-d′]-bis-(1,3)-dithiole-4-yl)methyl sodium salt in ^13C1-pyruvic acid (83.1 mg). The sample was mixed to homogeneity, placed in a sample cup and inserted in the DNP polariser. The sample was polarised under DNP conditions at 1.2 K in a 3.35 T magnetic field under irradiation with microwave (93.950 GHz). The ^13C-NMR signal from the sample was acquired using a Varian Inova-200 NMR spectrometer. The DNP enhancement was calculated from a measurement of the thermal equilibrium ^13C-NMR signal and the enhanced NMR signal. 16% ^13C polarisation was obtained.

[3] = rat, R3230AC tumours, 90 mM in TRIS, 10 ml/kg i.v. tail vein, imaging 30 s after start of injection

pH ([1]; injected solution, mean ±SD)	average polarisation at the time of injection ([1]; mean ±SD, solution in TRIS buffer injected into rats)	13C polarisation [2]	SMILES	overall rate of success ([1]; discrimination of tumour and healthy tissue, 26 tumours in 17 rats)	metabolic contrast in the tumour area, lactate signal [1, 3]	metabolic contrast in the tumour area, lactate signal, alanine corrected [1, 3]	metabolic contrast in the tumour area, lactate signal, pyruvate corrected [1, 3]
8.08±0.14	21.2±2.9%		CC(=O)[13C](=O)[O-].[Na+] [^13C1-pyruvate, sodium ^13C1-pyruvate]	100%	24 out of 26	26 out of 26	26 out of 26
		16%	CC(=O)[13C](=O)O [^13C1-pyruvic acid]				

Source: patent US9023320B2, “Method of producing a composition, composition and its use” (GE Healthcare AS, priority 2004, dated 2015)
